This note sets out measurements from patent publication US10226482B2, “Copolymer and method for treatment of bacterial infection” (RECCE LIMITED, priority 2014, dated 2019).

One experiment deals with E. coli. The format is cell-based. The procedure: (§1) […] The inoculated test solutions, pH 6.5 to 7.0 were then incubated at 37° C. for sufficient time-periods such that approximately 10^2-10^3 cfu/mL (or 99-99.9% of organisms) killed was achieved.
(§2) A 1 mL aliquot was removed from each respective solution and mixed for one minute with a 1 mL aliquot of Trypticase Soy Broth, then 8 mL of sterile water was added and mixed. Aliquots (1 mL) were then removed from each solution and lawn-inoculated by flooding onto Horse Blood Agar plates for 24-48 hours incubation at 37° C. Visual counts of bacterial growth on the plates were performed.
(§3) Successive generations of E. coli, S. aureus or P. aeruginosa respectively were cultivated via their selection through repeated exposure to a copolymer or Amoxicillin; Organisms surviving treatment were harvested for another cycle of treatment—this process being repeated up to 25 times.

In the next experiment the test system is S. aureus. The class given is cell-based. The protocol:
as §1, §2, §3

A further experiment relates to P. aeruginosa. The format is cell-based. The note with it: with broth. The protocol:
Three test organisms—E. coli, S. aureus and P. aeruginosa—were respectively inoculated to achieve an approximate concentration 10^6 cfu/mL in the test solutions; the test solutions each comprised 19 g sterile distilled water, 1 mL trypticase soy broth and copolymer (Example 1; 383 mg; 5.4% w/w on acrolein added) or Comparative Example 1; 303 mg; 6.7% w/w solution on acrolein added). The inoculated test solutions, pH 6.5 to 7.0 were then incubated at 37° C. for sufficient time-periods such that approximately 10^2-10^3 cfu/mL (or 99-99.9% of organisms) killed was achieved.
as §2, §3

Another experiment deals with MRSA (S. aureus USA300). Description: Example 9: curative treatment by tail injection of infected mice. The format is in vivo, BALB/c mice. The note with it: 1 to 7 scale (1 alert and healthy); tail injection 24 hours after infection; Example 1 132 mg/Kg, Comparative Example 1 167 mg/Kg, Oxacillin 500 mg/Kg. The protocol: All experiments were prior-audited, and then supervised to comply with international standards to ensure humane treatment of the animals. All experiments were performed in independent laboratories. In particular, all experiments in Examples 6, 7 and 8 were done in USA within pre-designed protocols specifically to research sepsis and bacteremia; protocols were “blinded” of the identity of test-solutions, to both the supervisor and assistants. All infections were in 100 μL, designed to result in approximately 10^7 cfu/mL infection of mouse-blood; mice were type BALB/c—ten per group in each experiment. Mice were assessed by either sacrifice followed by cfu/g count of bacteria within organ(s), or within a 1 to 7 scale of Health Score, including (1; alert and healthy) to (5; sick and very ruffled coat; euthanized) to (7; deceased). The protocols are tabulated, and follow.
Four groups of each 10 mice were infected with S. aureus superbug (S. aureus USA300), and 24 hours afterwards each group treated curatively with respectively: The copolymer of Example 1 (Ex 1) MW 500 at 132 mg/Kg of mouse; copolymer MW 2500 Comparative Example 1 (CE 1) at 167 mg/Kg of mouse; positive control Oxacillin, 500 mg/Kg and negative control saline. FIG. 5 is a chart showing the number of mice culled due to morbidity or mortality.

Where [1] appears, read: 0.35% w/w solution of Amoxicillin.

Where two headings read alike, the source gives them in different places.

For the compound `CC1(C)S[C@@H]2[C@H](NC(=O)[C@H](N)c3ccc(O)cc3)C(=O)N2[C@H]1C(=O)O` [Amoxicillin], the “generation after which bacterial resistance resulted” value is recorded as “second” in the experiment on E. coli (setting [1]) and “eighth” with S. aureus (setting [1]). The “Number of generations of microbes to resistance” value is 8 in the experiment on E. coli (with broth); 2 with E. coli (without broth); 10 with S. aureus (with broth); 8 in the experiment on S. aureus (without broth); 6 in the experiment with P. aeruginosa.

As to `Cc1onc(-c2ccccc2)c1C(=O)N[C@@H]1C(=O)N2[C@@H]1SC(C)(C)[C@@H]2C(=O)O` [Oxacillin], the “Health Score of surviving mice” value in the experiment with MRSA (S. aureus USA300) is given as 2.5.
